For assay [1], the system named is Clostridium ljungdahlii BCRC 17797. The experiment in a line: Growth (OD600) of Clostridium ljungdahlii under CO2/H2 gas mixture. It counts as cell-based. Particulars: for OD600 value: t=144 hours, 2.5 g/L sodium lactate or 1.52 g/L NaCl in mPETC, 80% H2/20% CO2, 37° C. How it is done:
(§1) Clostridium ljungdahlii was first cultured anaerobically with mPETC medium containing 10 g/L of fructose at 37° C. in one of the air-tight bottles mentioned above. When OD600 reached a value ranging from 1 to 1.5, the culture medium was centrifuged at 3500 rpm for 210 seconds. The resulting cell pellet was resuspended with mPETC without fructose and then further cultured anaerobically at 37° C. for one hour to remove any residual sugar substrates.
(§2) 45 ml of mPETC culture medium was added to one of the crimp-top serum bottles mentioned above, which was then covered with an aluminum foil and autoclaved for 15 minutes at 121° C., 15 psi. After cooling, the medium-containing bottle was moved into an anaerobic chamber, and 50 μl of cysteine-HCl (50% w/v) was added to the medium to remove any dissolved oxygen.
(§3) For an experimental group, sodium lactate solution was further added to the culture medium to obtain a lactate concentration of 2.5 g/L (about 0.022 M).
(§4) For a sodium ion control group, NaCl solution was added to the culture medium to obtain a NaCl concentration of 1.52 g/L (about 0.026 M). This control group was designed to test whether the sodium ions present in the sodium lactate play any role in carbon dioxide fixation. Thus, the same molar amount of sodium ion as the experimental group was added.
(§5) Each of the serum bottles containing 45 ml of mPETC culture medium was then inoculated with 5 ml of Clostridium ljungdahlii culture that had residual sugar removed. A sample taken at this point was labeled as t=0 sample. The bottles were then sealed with rubber stoppers and further covered with aluminum crimp caps to ensure an air-tight closure.
The headspaces of the air-tight bottles were first purged with a gas mixture containing 80% N2 and 20% of CO2 under a pressure of 10 psi. Needles were inserted into the rubber stops to allow the gas to escape from the bottles. […]
Syringes with needles were used to collect liquid samples. […] The supernatant was analyzed with an Agilent 1100 series high-performance liquid chromatography (HPLC) with Aminex HPX-87 H (300 mm×7.8 mm) column.

For assay [2] the test system is unchanged. As to the kind of experiment: HPLC analysis of culture medium: acetic acid produced and lactic acid consumed during CO2 fermentation. It counts as cell-based. Particulars: for carbon atoms contained in acetic acid produced / Acetic Acid ΔC (Ct=144 h − Ct=0), acetic acid produced: 144 hours of culture; for Acetic Acid ΔC (Ct=144 h − Ct=0), acetic acid produced / Acetic Acid Ct=0 h / Acetic Acid Ct=144 h: 2.5 g/L sodium lactate or 1.52 g/L sodium chloride in mPETC; for Acetic Acid Ct=0 h: t=0; for Acetic Acid Ct=144 h: t=144 hours; for Acetate production: after 96 hours of culture. As for the experimental part:
as §1, §2, §3, §4, §5
The headspaces of the air-tight bottles were first purged with a gas mixture containing 80% N2 and 20% of CO2 under a pressure of 10 psi. Needles were inserted into the rubber stops to allow the gas to escape from the bottles. After about 30 seconds of exposure to the gas mixture, an anaerobic condition filled with CO2 was obtained within the bottles.
Using needles, the headspaces of the bottles were then further purged with another gas mixture containing 80% H2 and 20% of CO2 under a pressure of 20 psi to replace the previous gas mixture. After about 30 seconds, needles were removed and the pressure within the bottles was built up to about 20 psi. The bottles were then moved to a 37° C. incubator and placed on a shaker providing a shaking speed of 100 rpm.
Every 12 hours, a needle was used to release the gas built up within the bottle, and the headspace of the bottle was purged and refreshed under the same process as described above to replenish gaseous carbon source under a stabilized pressure.
(§6) Syringes with needles were used to collect liquid samples. After measuring the OD600, the liquid samples were centrifuged at 12,000 rpm for 10 minutes. The resulting cell pellet was stored in 700 μl TRIzol solution for later RNA extraction and gene expression analysis. The supernatant was analyzed with an Agilent 1100 series high-performance liquid chromatography (HPLC) with Aminex HPX-87 H (300 mm×7.8 mm) column.
The experimental protocol as described in Example 1 was repeated, except that, besides having a no-additive control group, two experimental groups were prepared, one had 1 g/L of lactate in the culture medium and the other had 2.5 g/L of lactate in the culture medium.

Assay [3] has as its system lactate permease and genes involved in the Wood-Ljungdahl pathway. As to the kind of experiment: RT-qPCR expression of lactate permease and Wood-Ljungdahl pathway genes. It counts as cell-based, Clostridium ljungdahlii. Particulars: 2.5 g/L sodium lactate; relative to no-additive control group (FIG. 3). As for the experimental part:
as §6
Real-time quantitative polymerase chain reaction (RT-qPCR) was used to quantify the expression of certain genes listed in Table 2.
On the technique in general: In qPCR the cycle at which signal appears reflects the starting amount.

SMILES strings stand for the structures.

In the case of `[Cl-].[Na+]` [sodium chloride, reference compound], the OD600 value in assay [1] worked out at 0.82. In addition, in assay [2], the “carbon atoms contained in acetic acid produced” value is reported as “about 0.166 M”; the “Acetic Acid ΔC (Ct=144 h − Ct=0), acetic acid produced” value (from here on “Acetic Acid ΔC”) is reported as 4.91 g/L; the “Acetic Acid Ct=0 h” value is 0.06 ± 0.00 g/L; the “Acetic Acid Ct=144 h” value came to 4.97 ± 0.82 g/L. Besides, in assay [2] (listed as sodium-ion control group), the “Acetic Acid ΔC” value is “about 4.97 g/L”.

`CC(O)C(=O)O` (stereo not shown) [sodium lactate]: the “difference in growth rates between groups” value in assay [1] (experimental, sodium ion control and no-additive control groups, up to 144 hours) is listed as “no significant difference”. In assay [1], the OD600 value came out at 0.71. This compound also gave an Acetate production in assay [2] (1 g/L lactate in medium) of 8.13 ± 1.59 g/L. For the same compound, the Acetate production in assay [2] (2.5 g/L lactate in medium) is 9.15 ± 0.06 g/L. Also, in assay [2], the “carbon atoms contained in acetic acid produced” value is reported as “about 0.213 M”; the “Acetic Acid ΔC” value is 6.39 g/L; the “Acetic Acid Ct=0 h” value stood at 0.06 ± 0.00 g/L; the “Acetic Acid Ct=144 h” value came to 6.45 ± 0.43 g/L. Also, in assay [2] (144 hours, 0.191 M versus 0.166 M of control group), the “amount of CO2 converted (fixed) to acetic acid, higher than control group” value was “at least 15%”. Besides, the “carbon atoms that came from CO2 in the gas mixture (CO2 fixed to acetic acid)” value in assay [2] (144 hours, 2.5 g/L sodium lactate, 0.213 M minus 0.022 M) is “at least 0.191 M”. In assay [3], the “fold increase of CooS1” value is recorded as ~3 fold, the “fold increase of lactate permease” value is reported as ~11 fold and the “fold increase of metF” value is reported as ~4 fold.

Values taken from patent US20140193871A1, “METHOD FOR ENHANCING CARBON BIOFIXATION” (Industrial Technology Research Institute, priority 2013, published 2014).
